According to PubChem BioAssay (NCI):
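Briefly, cells in 96-well plates were exposed to five compound concentrations for 48 h, and endpoints were estimated by linear interpolation. TGI: total growth inhibition.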

Tests used:
Experiment in all cases: NCI tumour cell line growth inhibition, 48 h
[1] = tested on: MDA-MB-435
[2] = tested on: OVCAR-3 ovarian
[3] = tested on: SF-539 CNS
[4] = tested on: IGROV1 ovarian
[5] = tested on: HOP-92 NSCLC
[6] = tested on: LOX IMVI melanoma
[7] = tested on: CCRF-CEM leukemia
[8] = tested on: DU-145 prostate
[9] = tested on: A549 NSCLC
[10] = tested on: NCI-H522 lung
[11] = tested on: A498 renal
[12] = tested on: HT29 colon
[13] = tested on: UO-31 renal
[14] = tested on: KM12 colon
[15] = tested on: PC-3 prostate
[16] = tested on: SK-OV-3 ovarian
[17] = tested on: MDA-N
[18] = tested on: SK-MEL-5 melanoma
[19] = tested on: M14 melanoma
[20] = tested on: T-47D breast
[21] = tested on: SK-MEL-2 melanoma
[22] = tested on: U251 CNS
[23] = tested on: K-562 leukemia
[24] = tested on: CAKI-1 renal
[25] = tested on: EKVX NSCLC
[26] = tested on: SF-268 CNS
[27] = tested on: HCC-2998 colon
[28] = tested on: OVCAR-4 ovarian
[29] = tested on: SNB-19 CNS
[30] = tested on: MCF7 breast
[31] = tested on: NCI-H460 lung
[32] = tested on: NCI/ADR-RES ovarian
[33] = tested on: COLO 205 colon
[34] = tested on: NCI-H23 lung
[35] = tested on: UACC-257 melanoma
[36] = tested on: UACC-62 melanoma
[37] = tested on: SW-620 colon
[38] = tested on: OVCAR-8 ovarian
[39] = tested on: HCT-116 colon
[40] = tested on: OVCAR-5 ovarian
[41] = tested on: HCT-15 colon
[42] = tested on: BT-549 breast
[43] = tested on: SF-295 CNS
[44] = tested on: MDA-MB-231 breast
[45] = tested on: HL-60(TB) leukemia
[46] = tested on: MALME-3M melanoma
[47] = tested on: TK-10 renal
[48] = tested on: RXF 393 renal
[49] = tested on: 786-0 renal
[50] = tested on: RPMI-8226 leukemia
[51] = tested on: SK-MEL-28 melanoma
[52] = tested on: SN12C renal
[53] = tested on: HS 578T breast
[54] = tested on: MOLT-4 leukemia
[55] = tested on: HOP-62 NSCLC
[56] = tested on: ACHN renal
[57] = tested on: NCI-H226 lung
[58] = tested on: SNB-75 CNS
[59] = tested on: SR leukemia

`O=C(O)CCSc1ncnc2nc[nH]c12` was tested, and the TGI [1] was over 100 µM, the TGI [2] was over 100 µM and the TGI [3] was over 100 µM. For the same compound, the TGI [4] was over 100 µM, the TGI [5] was 96.3 µM and the TGI [6] was over 100 µM. For the same compound, the TGI [7] was over 100 µM, the TGI [8] was over 100 µM and the TGI [9] was over 100 µM. The TGI [10] was over 100 µM, the TGI [11] was over 100 µM and the TGI [12] was over 100 µM. For the same compound, the TGI [13] was over 100 µM, the TGI [14] was over 100 µM and the TGI [15] was over 100 µM. For the same compound, the TGI [16] was over 100 µM, the TGI [17] was over 100 µM and the TGI [18] was over 100 µM. For the same compound, the TGI [19] was over 100 µM, the TGI [20] was over 100 µM and the TGI [21] was over 100 µM. It also gave a TGI [22] of over 100 µM, a TGI [23] of over 100 µM and a TGI [24] of over 100 µM. For the same compound, the TGI [25] was over 100 µM, the TGI [26] was over 100 µM and the TGI [27] was over 100 µM. The TGI [28] was over 100 µM, the TGI [29] was over 100 µM and the TGI [30] was over 100 µM. The TGI [31] was over 100 µM, the TGI [32] was over 100 µM and the TGI [33] was over 100 µM. It also gave a TGI [34] of over 100 µM, a TGI [35] of over 100 µM and a TGI [36] of over 100 µM. The TGI [37] was over 100 µM, the TGI [38] was over 100 µM and the TGI [39] was over 100 µM. For the same compound, the TGI [40] was over 100 µM, the TGI [41] was over 100 µM and the TGI [42] was over 100 µM. It also gave a TGI [43] of over 100 µM, a TGI [44] of over 100 µM and a TGI [45] of over 100 µM. The TGI [46] was over 100 µM, the TGI [47] was over 100 µM and the TGI [48] was over 100 µM. For the same compound, the TGI [49] was over 100 µM, the TGI [50] was over 100 µM and the TGI [51] was over 100 µM. For the same compound, the TGI [52] was over 100 µM, the TGI [53] was over 100 µM and the TGI [54] was over 100 µM. For the same compound, the TGI [55] was over 100 µM, the TGI [56] was over 100 µM and the TGI [57] was over 100 µM.
`O=C(O)C(O)c1ccc(F)cc1` (stereo not given) gave a TGI [1] of over 100 µM, a TGI [2] of over 100 µM and a TGI [4] of over 100 µM. The TGI [5] was over 100 µM, the TGI [6] was over 100 µM and the TGI [8] was over 100 µM. For the same compound, the TGI [9] was over 100 µM, the TGI [10] was over 100 µM and the TGI [11] was over 100 µM. It also gave a TGI [12] of over 100 µM, a TGI [13] of over 100 µM and a TGI [14] of over 100 µM. For the same compound, the TGI [15] was over 100 µM, the TGI [16] was over 100 µM and the TGI [17] was over 100 µM. The TGI [19] was over 100 µM, the TGI [20] was over 100 µM and the TGI [21] was over 100 µM. The TGI [22] was over 100 µM, the TGI [23] was over 100 µM and the TGI [24] was over 100 µM. It also gave a TGI [25] of over 100 µM, a TGI [26] of over 100 µM and a TGI [28] of over 100 µM. The TGI [29] was over 100 µM, the TGI [30] was over 100 µM and the TGI [31] was over 100 µM. It also gave a TGI [32] of over 100 µM, a TGI [34] of over 100 µM and a TGI [35] of over 100 µM. For the same compound, the TGI [36] was over 100 µM, the TGI [37] was over 100 µM and the TGI [38] was over 100 µM. The TGI [39] was over 100 µM, the TGI [40] was over 100 µM and the TGI [41] was over 100 µM. The TGI [42] was over 100 µM, the TGI [43] was over 100 µM and the TGI [44] was over 100 µM. For the same compound, the TGI [46] was over 100 µM, the TGI [47] was over 100 µM and the TGI [48] was over 100 µM. For the same compound, the TGI [58] was over 100 µM, the TGI [59] was over 100 µM and the TGI [49] was over 100 µM. For the same compound, the TGI [50] was over 100 µM, the TGI [51] was over 100 µM and the TGI [52] was over 100 µM. The TGI [53] was over 100 µM, the TGI [54] was over 100 µM and the TGI [55] was over 100 µM. For the same compound, the TGI [56] was over 100 µM.
For `Fc1ccc(OCc2ccc3nc(-c4ccccc4)c(Cl)nc3c2)cc1`, the TGI [1] was over 100 µM, the TGI [2] was over 100 µM and the TGI [3] was 51.8 µM. The TGI [4] was 74.3 µM, the TGI [5] was 50.1 µM and the TGI [6] was over 100 µM. For the same compound, the TGI [7] was 89.8 µM, the TGI [8] was over 100 µM and the TGI [9] was over 100 µM. For the same compound, the TGI [10] was 24.4 µM, the TGI [11] was 50.1 µM and the TGI [12] was over 100 µM. For the same compound, the TGI [13] was over 100 µM, the TGI [14] was over 100 µM and the TGI [15] was over 100 µM. The TGI [17] was over 100 µM, the TGI [18] was over 100 µM and the TGI [19] was over 100 µM. The TGI [20] was over 100 µM, the TGI [21] was over 100 µM and the TGI [22] was 39 µM. For the same compound, the TGI [24] was 60.6 µM, the TGI [25] was over 100 µM and the TGI [26] was over 100 µM. The TGI [27] was over 100 µM, the TGI [28] was over 100 µM and the TGI [30] was over 100 µM. The TGI [31] was over 100 µM, the TGI [32] was over 100 µM and the TGI [33] was over 100 µM. It also gave a TGI [34] of over 100 µM, a TGI [35] of over 100 µM and a TGI [36] of over 100 µM. The TGI [37] was over 100 µM, the TGI [38] was over 100 µM and the TGI [39] was over 100 µM. The TGI [40] was over 100 µM, the TGI [41] was over 100 µM and the TGI [42] was 85.8 µM. The TGI [43] was 50.3 µM, the TGI [44] was 47.3 µM and the TGI [45] was over 100 µM. It also gave a TGI [46] of 35.9 µM, a TGI [47] of 90.1 µM and a TGI [58] of 42.8 µM. The TGI [59] was 40.8 µM, the TGI [49] was 56.9 µM and the TGI [50] was over 100 µM. It also gave a TGI [51] of over 100 µM, a TGI [52] of over 100 µM and a TGI [53] of 67.7 µM. It also gave a TGI [54] of 60 µM, a TGI [55] of 31.3 µM and a TGI [56] of 71.7 µM.
`O=c1n(CCCN2CCOCC2)nc2n1-c1ccc3ccccc3c1SC2` was tested, and the TGI [1] was over 100 µM, the TGI [2] was over 100 µM and the TGI [3] was over 100 µM. The TGI [4] was over 100 µM, the TGI [5] was over 100 µM and the TGI [6] was 53 µM. It also gave a TGI [7] of over 100 µM, a TGI [8] of over 100 µM and a TGI [9] of over 100 µM. It also gave a TGI [10] of 52.3 µM, a TGI [11] of over 100 µM and a TGI [12] of 41.2 µM. The TGI [13] was 45.7 µM, the TGI [14] was over 100 µM and the TGI [15] was over 100 µM. The TGI [16] was over 100 µM, the TGI [17] was 24.1 µM and the TGI [18] was 47.7 µM. For the same compound, the TGI [20] was over 100 µM, the TGI [21] was over 100 µM and the TGI [22] was over 100 µM. It also gave a TGI [23] of over 100 µM, a TGI [24] of over 100 µM and a TGI [25] of over 100 µM. It also gave a TGI [28] of over 100 µM, a TGI [29] of over 100 µM and a TGI [30] of over 100 µM. It also gave a TGI [31] of 81.1 µM, a TGI [32] of over 100 µM and a TGI [33] of 7.49 µM. It also gave a TGI [35] of over 100 µM, a TGI [36] of 47.2 µM and a TGI [37] of over 100 µM. The TGI [38] was over 100 µM, the TGI [39] was over 100 µM and the TGI [40] was over 100 µM. It also gave a TGI [41] of 67.2 µM, a TGI [42] of over 100 µM and a TGI [43] of 42.1 µM. The TGI [45] was 97.8 µM, the TGI [47] was over 100 µM and the TGI [48] was over 100 µM. The TGI [58] was over 100 µM, the TGI [59] was over 100 µM and the TGI [49] was 38.3 µM. It also gave a TGI [50] of 80.8 µM, a TGI [51] of over 100 µM and a TGI [52] of over 100 µM. It also gave a TGI [53] of over 100 µM, a TGI [54] of over 100 µM and a TGI [55] of over 100 µM. It also gave a TGI [57] of over 100 µM.
